Laboratory results taken from US20240382437A1, “TREATMENT OF ACUTE TISSUE INJURY” (OBVIA PHARMACEUTICALS LTD., priority 2021, published 2024).

Assays:
[1] = in vivo; cited from earlier work
kidney [2] = conditions: rodent kidney transplant study; cited from earlier work
TIMP-1 = TIMP-1 ELISA of serum and kidney homogenate 20 hr after transplant; format: in vivo, rat; conditions: 20 hr post-transplant, kidney homogenates and sera, FIG. 6
Description: (§1) TIMP-1, TNF-alpha and MIP-3A/CCL20 levels were determined by ELISA analysis. P values are indicated.
(§2) To determine PrC-210 efficacy in suppressing inflammation-generated damage to a transplanted, allograft organ, we used an allograft rat kidney transplant model that largely eliminated the induction of the ischemia and reperfusion insults in transplant, and created only the third inflammation insult by allograft transplanting a kidney from a Brown strain (BN) rat into a recipient Lewis strain (LEW) rat (FIG. 1). PrC-210 was administered both pre-and post-implantation to determine its protective effect in suppressing any inflammation-associated damage to the transplanted BN kidney in the LEW rat. Brown Rat kidneys were flushed with UW solution containing PrC-210 and immediately transplanted into syngeneic Lewis Rat recipients. Ischemic time was virtually eliminated. […]
(§3) In screening experiments, kidney homogenate supernates from 0 hr controls and 20 hr no treatment kidneys were screened with the Proteome Profiler 29 cytokine array to detect altered, inflammation-associated, cytokine and chemokine expression levels 20 hr post-transplant. […] Individual ELISA plates were then used to quantify these changes in kidney homogenates and sera, now including rats treated with PrC-210 as well. […]

kidney [3] = conditions: rodent kidney transplant study; cited from earlier work; remark: listed apart in the source
MIP-3a/CCL20 = MIP-3a/CCL20 ELISA 20 hr after transplant; format: in vivo, rat; conditions: 20 hr post-transplant, FIG. 6D
Description: as §1, §2, §3

TNF-alpha = TNF-alpha ELISA of serum and kidney homogenate 20 hr after transplant; format: in vivo, rat; conditions: 20 hr post-transplant, kidney homogenates and sera, FIG. 6
Description: as §1, §2, §3

Caspase 8 = Caspase 8 in brains of ICR mice after lethal radiation; format: in vivo
Source text: Caspase 8 inhibition (FIG. 9) in the brain after acute injury, such as radiation, is support for less TNF-α activation, and TRL—and FAS receptor upregulation in the brain. […] This supports that inflammation, such as activation of microglia is normalized after PrC-210.

Caspase 1 = Caspase 1 in plasma of ICR mice after lethal radiation; format: in vivo; conditions: PrC-210 given before or after lethal radiation with 8.68 Gy, FIG. 8
Source text: Caspase 1 is a central activator of acute inflammation in neutrophilic cells, which recruits both T-cells and monocytes and activates apoptosis.

caspase 3,7 = test: Activated caspase 3,7 activity in post-transplant kidney supernatant, measured enzymatically; format: in vivo, rat; conditions: 20 hr after transplant; PrC-210 in UW Solution plus systemic doses; 60 min reaction; FIG. 5
Description: Kidney supernatant activated caspase 3,7 activity was measured enzymatically in a 60 min reaction.
(§4) To determine PrC-210 efficacy in suppressing inflammation-generated damage to a transplanted, allograft organ, we used an allograft rat kidney transplant model that largely eliminated the induction of the ischemia and reperfusion insults in transplant, and created only the third inflammation insult by allograft transplanting a kidney from a Brown strain (BN) rat into a recipient Lewis strain (LEW) rat (FIG. 1). PrC-210 was administered both pre-and post-implantation to determine its protective effect in suppressing any inflammation-associated damage to the transplanted BN kidney in the LEW rat. Brown Rat kidneys were flushed with UW solution containing PrC-210 and immediately transplanted into syngeneic Lewis Rat recipients. Ischemic time was virtually eliminated. Immediately following implant, and for 8 hr following kidney implant, recipient rats received systemic PrC-210 injections at doses that would enable continuous free radical-scavenging within the transplanted kidney. Transplanted kidneys and blood plasma were then harvested 20 hr following transplant to enable measurement of both PrC-210-conferred i) suppression of inflammatory by-products and ii) kidney protection.

transplanted BN kidney = test: Histology of transplanted BN kidneys 20 hr after allograft transplant into LEW rats; format: in vivo, rat; conditions: 20 hr post-transplant
Description: LT (left), RT (right), MTD (Maximum Tolerated Dose), IP (intraperitoneal).
(B,C,D) BN kidneys 20 hr following transplant into LEW rats. “20 hr” control kidneys (B,C) were flushed with room temperature UW Solution prior to transplant, and +PrC-210 kidneys (D) were flushed with room temperature UW Solution containing 30 mM PrC-210 prior to transplant, and recipient LEW rat also received three intraperitoneal systemic PrC-210 doses in the eight hours following transplant. Panel B red arrows highlight tubulitis pathology, and Panel C yellow arrows highlight peritubular capillaritis pathology.
Operator randomly collected sample images of renal tubules from each of the indicated kidney groups in panels A,B,C. Then, using an ImageJ macro, H/E images (e.g., FIG. 3 panels A-C) were analyzed, and above-threshold pink or blue pixels were selected and enumerated, and their ratio was then calculated and plotted to provide an estimate of kidney white blood cell infiltration.
as §4
The same blinded histology sections were examined for mononuclear white cell infiltration.

BN allograft kidneys = test: Kidney function (serum creatinine and serum BUN) 20 hr after transplant of the BN kidney into a LEW rat; format: in vivo; conditions: three IP PrC-210 injections
Source text: Rats either received no PrC-210 (“20 Hr”) or three IP PrC-210 injections in the 20 hr period following transplant (“20 Hr +PrC-210”), before recipient rat was euthanized and serum was collected. P values are indicated. To determine PrC-210 efficacy in suppressing inflammation-generated damage to a transplanted, allograft organ, we used an allograft rat kidney transplant model that largely eliminated the induction of the ischemia and reperfusion insults in transplant, and created only the third inflammation insult by allograft transplanting a kidney from a Brown strain (BN) rat into a recipient Lewis strain (LEW) rat (FIG. 1). PrC-210 was administered both pre-and post-implantation to determine its protective effect in suppressing any inflammation-associated damage to the transplanted BN kidney in the LEW rat. Brown Rat kidneys were flushed with UW solution containing PrC-210 and immediately transplanted into syngeneic Lewis Rat recipients. Ischemic time was virtually eliminated. Immediately following implant, and for 8 hr following kidney implant, recipient rats received systemic PrC-210 injections at doses that would enable continuous free radical-scavenging within the transplanted kidney. […] Serum creatinine and serum BUN were also measured to assess function in the BN allograft kidneys 20 hr after transplant (FIG. 4).

## CNCC(CS)CNC [PrC-210, 3-(methylamino)-2-(methylaminomethyl) propane-1-thiol]
[1]
  hypotension side effects: no measurable
  nausea/emesis side effects: no measurable
Kidney [2]
  free-radical-induced kidney damage induced during reperfusion injury upon implant: to background levels
TIMP-1
  TIMP-1 levels: decreased
Kidney [3]
  free-radical-induced kidney damage induced during 30 hr cold storage: to background levels
MIP-3a/CCL20
  MIP-3a/CCL20 levels: increased significantly higher
TNF-alpha
  TNF-alpha levels: decreased
Caspase 8; ICR mice brain, lethal radiation with 8.68 Gy
  duration of the effect on Caspase 8: at least six days
Caspase 8; ICR mice, PrC-210 given before lethal radiation with 8.68 Gy, FIG. 9
  Caspase 8 in the brain: inhibition
Caspase 1
  Caspase 1 in plasma: 6-day suppression
Caspase 3,7
  activated caspase activity in BN kidney homogenates: same activated caspase activity to that seen in “O hr” control kidneys
Transplanted BN kidney; PrC-210 via perfusing UW Solution and intraperitoneal injections, FIG. 3
  integrity of the renal tubule brush border epithelium (histology): preserved integrity of the renal tubular brush border
Transplanted BN kidney; compared with 0 hr control group, FIG. 3, D
  Inflammatory Infiltration Score: statistically the same as the 0 hr control group
Transplanted BN kidney; kidney perfused with PrC-210-containing UW Solution (30 mM) plus three post-implant intraperitoneal doses, FIG. 2
  Banff scores for tubulitis and peritubular capillaritis: equal to Banff scores of the “0 Hr” control BN group
Transplanted BN kidney; versus the untreated BN kidneys, P=0.011, FIG. 3
  mononuclear white cell infiltration (blue pixels): significantly suppressed
BN allograft kidneys; P=0.032, FIG. 4
  serum creatinine: significant reductions
BN allograft kidneys; P=0.046, FIG. 4
  serum BUN: significant reductions
